Measured values as given in publication PMC3724473 (Biosensors & bioelectronics, 2012).

What was measured:
[1] = molecular target: T1, CotA / bilirubin oxidase (BOD) from Bacillus pumilus (Bacillus pumilus, UniProt A8FAG9); assay: spectrophotometric at […] nm; assay type: biochemical; settings: optimal pH (assay pH 7.2, 50 mM sodium phosphate), 37 °C
[2] = molecular target: T1, CotA / bilirubin oxidase (BOD) from Bacillus pumilus; assay: spectrophotometric oxidation at […] nm, Michaelis-Menten fit; assay type: biochemical; settings: optimal pH (assay pH 6.8), 37 °C, McIlvaine citrate-phosphate buffer

Km [1] | Km [2] | SMILES
22 µM |  | C=CC1=C(C)/C(=C/c2[nH]c(Cc3[nH]c(/C=C4\NC(=O)C(C)=C4C=C)c(C)c3CCC(=O)O)c(CCC(=O)O)c2C)NC1=O [unconjugated bilirubin]
 | 822 µM | COc1cccc(OC)c1O [2,6-DMP, 2,6-dimethoxyphenol]
